Experimental findings from US8653089B2, “Heterocyclic compounds and methods of use” (F. Hoffmann-La Roche AG, priority 2011, dated 2014) are described below.

One assay addresses T1, p110 delta (Homo sapiens, UniProt O00329).
T1 construct: purchased Upstate Group, Millipore; Dundee, UK
Briefly: PI3K isoform inhibition assay (fluorescence polarization), p110 delta. Format: biochemical. The settings on record: p110 delta binding IC50, selected compounds from Table 1. The protocol:
PI3K enzymatic activity was assayed by measuring the amount of product phosphatidylinositol 3,4,5-phosphate (PIP3) formed from substrate 4,5 phosphatidylinositol 4,5-phosphate (PIP2) using a fluorescence polarization displacement assay. The decrease in fluorescence polarization of a fluorescent PIP3 probe is measured as it is displaced from a PIP3-binding protein GRP-1detector by PI3K-catalyzed product. Assays were conducted in 384-well black Proxiplates in the presence of 10 mM Tris (pH 7.5), 50 mM NaCl, 4 mM MgCl2, 5% glycerol, 25 μM ATP, 10 μM PIP2 (Echelon Biosciences), 0.05% 3-[(3-cholamidopropyl)dimethylammonio]-1-propanesulfonate, 1 mM dithiothreitol, and 2% DMSO. The kinase reactions were initiated by the addition of 40 ng/mL p110α/p85α, 300 ng/mL p110β/p85α, 40 ng/mL p110γ, or 40 ng/mL p110δ/p85α (Upstate Group, Millipore; Dundee, UK), and 10 μM PIP2 (Echelon Biosciences) to the wells. The reactions were stopped at timepoints that yielded a fixed change in fluorescence polarization consistent with initial rate conditions (typically 30 minutes), by the addition of 12.5 mM EDTA, 100 nM GRP-1 detector, and 5 nM tetramethylrhodamine-labeled PIP3 (TAMRA-PIP3; Echelon Biosciences). After 60 minutes of incubation at room temperature to allow equilibration of labeled and unlabeled PIP3 binding, the parallel and perpendicular components of the fluorescence emissions from each sample were measured at an excitation wavelength of 530 nm and an emission wavelength of 590 nm using an Envision fluorescent plate reader with a rhodamine filter (PerkinElmer Life and Analytical Sciences; Wellesley, Mass.). The assay is capable of detecting 0.1-2.0 μM PIP3 product. The IC50 values were obtained by fitting the dose-dependent inhibition data to a 4-parameter equation using Assay Explorer software (MDL, San Ramon, Calif.). […]
(§1) Recombinant PI3K p110 isoforms alpha, beta, and delta may be prepared and purified according to US 2008/0275067 from recombinant PI3K heterodimeric complexes consisting of a p110 catalytic subunit and a p85 regulatory subunit overexpressed using the BAC-TO-BAC® HT baculovirus expression system (GIBCO/BRL), and then purified for use in biochemical assays. The four Class I PI 3-kinases are cloned into baculovirus vectors as follows:
p110 delta: A FLAG™-tagged (Eastman Kodak Co., U.S. Pat. No. 4,703,004; U.S. Pat. No. 4,782,137; U.S. Pat. No. 4,851,341) version of human p110.delta (Chantry et al., J. Biol. Chem. (1997) 272:19236-41) is subcloned using standard recombinant DNA techniques into the BamHI-XbaI site of the insect cell expression vector pFastbac HTb (Life Technologies, Gaithersburg, Md.), such that the clone is in frame with the His tag of the vector.
On the technique in general: Fluorescence polarisation rises when a labelled molecule tumbles more slowly, as on binding a larger partner.

For a further assay, the target named is T2, p110 alpha (Homo sapiens, UniProt P42336).
T2 construct: purchased Upstate Group, Millipore; Dundee, UK
T2 sequence (P42336 whole entry): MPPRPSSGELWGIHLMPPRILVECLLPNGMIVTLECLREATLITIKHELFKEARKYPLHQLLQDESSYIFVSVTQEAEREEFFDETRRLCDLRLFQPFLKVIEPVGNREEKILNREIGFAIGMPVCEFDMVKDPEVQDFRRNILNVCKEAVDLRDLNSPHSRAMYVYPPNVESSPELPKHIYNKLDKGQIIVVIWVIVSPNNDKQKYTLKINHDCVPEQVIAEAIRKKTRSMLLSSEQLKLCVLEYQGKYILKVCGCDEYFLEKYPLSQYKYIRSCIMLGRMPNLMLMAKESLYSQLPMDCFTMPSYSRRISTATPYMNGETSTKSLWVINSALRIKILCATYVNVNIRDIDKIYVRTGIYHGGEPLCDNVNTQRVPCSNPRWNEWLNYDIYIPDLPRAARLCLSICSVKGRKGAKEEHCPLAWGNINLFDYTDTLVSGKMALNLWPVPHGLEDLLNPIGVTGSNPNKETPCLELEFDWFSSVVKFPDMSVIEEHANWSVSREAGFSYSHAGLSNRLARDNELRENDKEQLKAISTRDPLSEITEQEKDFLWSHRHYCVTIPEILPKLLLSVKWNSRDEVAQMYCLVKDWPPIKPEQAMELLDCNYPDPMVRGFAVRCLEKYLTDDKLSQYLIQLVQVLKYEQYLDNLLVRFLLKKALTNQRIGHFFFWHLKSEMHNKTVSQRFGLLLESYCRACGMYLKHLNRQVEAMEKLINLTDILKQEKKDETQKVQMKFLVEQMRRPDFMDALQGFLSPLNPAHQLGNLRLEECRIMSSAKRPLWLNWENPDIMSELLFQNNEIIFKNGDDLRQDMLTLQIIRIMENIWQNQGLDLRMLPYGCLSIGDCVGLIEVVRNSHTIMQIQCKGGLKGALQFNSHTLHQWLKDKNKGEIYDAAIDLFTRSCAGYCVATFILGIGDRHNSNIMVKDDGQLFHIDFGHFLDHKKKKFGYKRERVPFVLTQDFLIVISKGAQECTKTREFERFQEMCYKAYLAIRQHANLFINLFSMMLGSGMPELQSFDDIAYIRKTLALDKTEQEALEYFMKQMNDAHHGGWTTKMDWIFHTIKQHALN
T2 sequence (P27986 whole entry partner): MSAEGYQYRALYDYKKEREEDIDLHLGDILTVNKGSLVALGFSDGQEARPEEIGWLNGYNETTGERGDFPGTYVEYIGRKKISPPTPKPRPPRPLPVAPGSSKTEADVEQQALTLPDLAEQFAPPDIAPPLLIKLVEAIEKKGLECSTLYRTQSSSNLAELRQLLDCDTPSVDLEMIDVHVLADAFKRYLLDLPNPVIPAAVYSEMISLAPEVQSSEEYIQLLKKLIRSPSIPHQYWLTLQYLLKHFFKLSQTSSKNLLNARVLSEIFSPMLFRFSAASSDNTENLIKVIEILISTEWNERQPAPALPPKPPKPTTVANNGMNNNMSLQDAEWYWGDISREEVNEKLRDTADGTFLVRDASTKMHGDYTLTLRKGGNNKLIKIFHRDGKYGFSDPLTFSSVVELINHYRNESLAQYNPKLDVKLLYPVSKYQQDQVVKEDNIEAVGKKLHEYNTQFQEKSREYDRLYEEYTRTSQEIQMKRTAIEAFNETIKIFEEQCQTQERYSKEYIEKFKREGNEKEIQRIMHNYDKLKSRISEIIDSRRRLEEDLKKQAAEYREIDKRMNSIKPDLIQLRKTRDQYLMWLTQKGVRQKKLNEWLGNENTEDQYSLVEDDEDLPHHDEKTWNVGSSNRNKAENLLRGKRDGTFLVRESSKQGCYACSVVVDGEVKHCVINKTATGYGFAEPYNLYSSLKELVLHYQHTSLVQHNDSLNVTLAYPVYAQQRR
Briefly: PI3K isoform inhibition assay, p110 alpha (delta/alpha selectivity). Format: biochemical. Conditions: delta/alpha selectivity ratio. The protocol: PI3K enzymatic activity was assayed by measuring the amount of product phosphatidylinositol 3,4,5-phosphate (PIP3) formed from substrate 4,5 phosphatidylinositol 4,5-phosphate (PIP2) using a fluorescence polarization displacement assay. The decrease in fluorescence polarization of a fluorescent PIP3 probe is measured as it is displaced from a PIP3-binding protein GRP-1detector by PI3K-catalyzed product. Assays were conducted in 384-well black Proxiplates in the presence of 10 mM Tris (pH 7.5), 50 mM NaCl, 4 mM MgCl2, 5% glycerol, 25 μM ATP, 10 μM PIP2 (Echelon Biosciences), 0.05% 3-[(3-cholamidopropyl)dimethylammonio]-1-propanesulfonate, 1 mM dithiothreitol, and 2% DMSO. The kinase reactions were initiated by the addition of 40 ng/mL p110α/p85α, 300 ng/mL p110β/p85α, 40 ng/mL p110γ, or 40 ng/mL p110δ/p85α (Upstate Group, Millipore; Dundee, UK), and 10 μM PIP2 (Echelon Biosciences) to the wells. The reactions were stopped at timepoints that yielded a fixed change in fluorescence polarization consistent with initial rate conditions (typically 30 minutes), by the addition of 12.5 mM EDTA, 100 nM GRP-1 detector, and 5 nM tetramethylrhodamine-labeled PIP3 (TAMRA-PIP3; Echelon Biosciences). After 60 minutes of incubation at room temperature to allow equilibration of labeled and unlabeled PIP3 binding, the parallel and perpendicular components of the fluorescence emissions from each sample were measured at an excitation wavelength of 530 nm and an emission wavelength of 590 nm using an Envision fluorescent plate reader with a rhodamine filter (PerkinElmer Life and Analytical Sciences; Wellesley, Mass.). The assay is capable of detecting 0.1-2.0 μM PIP3 product. The IC50 values were obtained by fitting the dose-dependent inhibition data to a 4-parameter equation using Assay Explorer software (MDL, San Ramon, Calif.).
Alternatively, inhibition of PI3K was determined in a radiometric assay using purified, recombinant enzyme and ATP at a concentration of 1 uM. The Formula I compound was serially diluted in 100% DMSO. The kinase reaction was incubated for 1 h at room temperature, and the reaction was terminated by the addition of PBS. IC50 values were subsequently determined using sigmoidal dose-response curve fit (variable slope).
The same protocol may be used to establish IC50 values for p110α (alpha) PI3K binding.
as §1
p110 alpha: Similar to the method used for p110 delta, described above, a FLAG™-tagged version of p110 alpha (Volinia et al (1994) Genomics, 24(3):427-77) was subcloned in BamH1-HindIII sites of pFastbac HTb (Life Technologies) such that the clone was in frame with the His tag of the vector.

The test system of assay [1] is CD69 expression on CD20 positive cells in human whole blood stimulated by anti-IgM. The experiment in a line: CD69 Whole Blood Assay. Format: cell-based. The settings on record: concentration decreasing by 50% the percent CD69 positive cells that are also CD20 positive, 20 hours. The text has this:
Human blood is obtained from healthy volunteers, with the following restrictions: 1 week drug-free, non-smokers. Blood (approximately 20 mls to test 8 compounds) is collected by venipuncture into Vacutainer tubes with sodium heparin.
Cynomolgus monkey blood is obtained courtesy of the LAT group from monkeys not previously exposed to, or after a washout period from, chemical dosing. Additional cyno blood draws may be collected during the course of pharmacokinetic or toxicology studies. Blood (25-30 mls for naïve monkeys or 3-4 mls from monkeys on studies requiring repeated draws) is collected by venipuncture into Vacutainer tubes with sodium heparin.
Solutions of Formula I compounds at 1000 or 2000 μM in PBS (20×), are diluted by three-fold serial dilutions in 10% DMSO in PBS for a nine point dose-response curve. An aliquot of 5.5 μl of each compound is added in duplicate to a 2 ml 96-well plate; 5.5 μl of 10% DMSO in PBS is added as control and no-stimulus wells. Human whole blood—HWB (100 μl) is added to each well. After mixing the plates are incubated at 37° C., 5% CO2, 100% humidity for 30 minutes. Goat F(ab′)2 anti-human IgM (10 μl of a 500 μg/ml solution, 50 μg/ml final) is added to each well (except the no-stimulus wells) with mixing and the plates are incubated for an additional 20 hours. At the end of the 20 hour incubation, samples are incubated with fluorescent labeled antibodies for 30 minutes, at 37° C., 5% CO2, 100% humidity. Include induced control, unstained and single stains for compensation adjustments and initial voltage settings. Samples are then lysed with Pharmingen Lyse according to the manufacturer's instructions. Samples are then transferred to a 96 well plate suitable to be run on the AMS 96 well system on the BD Calibur FACs machine. Data acquired and Mean Fluorescence Intensity values were obtained using Cell Quest Software. Results are initially analyzed by FACS analysis software (Flow Jo). […] The […] values are calculated by ActivityBase using Xlfit version 3, equation 201.

T1 sequence (O00329 whole entry): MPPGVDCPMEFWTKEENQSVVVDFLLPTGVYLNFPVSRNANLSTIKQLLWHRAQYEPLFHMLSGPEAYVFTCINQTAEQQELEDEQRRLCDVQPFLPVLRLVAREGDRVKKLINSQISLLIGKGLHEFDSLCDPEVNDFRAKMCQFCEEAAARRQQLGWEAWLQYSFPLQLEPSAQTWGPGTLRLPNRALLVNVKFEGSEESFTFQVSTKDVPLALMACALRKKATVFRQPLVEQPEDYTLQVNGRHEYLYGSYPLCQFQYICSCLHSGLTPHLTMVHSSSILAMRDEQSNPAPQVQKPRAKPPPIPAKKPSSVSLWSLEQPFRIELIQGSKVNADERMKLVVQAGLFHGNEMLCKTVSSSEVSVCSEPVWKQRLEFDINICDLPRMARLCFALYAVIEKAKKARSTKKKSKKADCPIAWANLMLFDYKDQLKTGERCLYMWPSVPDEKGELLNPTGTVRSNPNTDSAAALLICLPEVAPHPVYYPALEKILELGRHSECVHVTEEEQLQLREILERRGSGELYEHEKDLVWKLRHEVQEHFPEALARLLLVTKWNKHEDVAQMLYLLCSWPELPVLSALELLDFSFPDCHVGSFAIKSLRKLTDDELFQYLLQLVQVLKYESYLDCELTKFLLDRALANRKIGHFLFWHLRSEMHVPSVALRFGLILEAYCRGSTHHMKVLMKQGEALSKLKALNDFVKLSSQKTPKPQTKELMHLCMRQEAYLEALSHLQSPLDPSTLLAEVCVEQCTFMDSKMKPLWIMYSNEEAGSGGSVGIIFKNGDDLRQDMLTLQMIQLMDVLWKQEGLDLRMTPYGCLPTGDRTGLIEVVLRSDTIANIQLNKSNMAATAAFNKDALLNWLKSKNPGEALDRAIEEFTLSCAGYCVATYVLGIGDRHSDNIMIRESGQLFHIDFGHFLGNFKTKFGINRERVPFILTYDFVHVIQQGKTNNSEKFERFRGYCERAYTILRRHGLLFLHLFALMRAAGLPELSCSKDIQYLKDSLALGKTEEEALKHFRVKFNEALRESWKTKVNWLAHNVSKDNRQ
T1 sequence (P27986 whole entry partner): as the sequence (P27986 whole entry partner) above

The term IC50 denotes the point on the concentration scale where inhibition reaches its midpoint. A lower IC50 goes with greater potency. Molecule `C[C@H](Nc1ncnc2[nH]cnc12)c1nc2ccccc2n1C1CCCOC1` (stereo partly drawn) [Example 128, N-((1S)-1-(1-(tetrahydro-2H-pyran-3-yl)-1H-benzo[d]imidazol-2-yl)ethyl)-9H-purin-6-amine] yielded an IC50 at p110 delta of 36.2 nM. Further, at p110 alpha, the “IC50 p110 alpha/IC50 p110 delta (greater than or equal to, ≧)” value (from here on “IC50 p110 alpha/IC50 p110 delta”) is reported as no less than 58.

As to `C[C@H](Nc1ncnc2[nH]cnc12)c1nc2ccccc2n1C1CCN(C2COC2)CC1` [Example 129, (S)—N-(1-(1-(1-(oxetan-3-yl)piperidin-4-yl)-1H-benzo[d]imidazol-2-yl)ethyl)-9H-purin-6-amine], the IC50 on p110 delta is 63.4 nM. For the same molecule, the “IC50 p110 alpha/IC50 p110 delta” value on p110 alpha is given as no less than 33.

Consider `CC(Nc1ncnc2[nH]cnc12)c1oc2ccccc2c1-c1ccccc1` (centres unmarked) [Example 103, N-(1-(3-phenylbenzofuran-2-yl)ethyl)-9H-purin-6-amine], for which, at p110 delta, the IC50 came to 33 nM. The “IC50 p110 alpha/IC50 p110 delta” value on p110 alpha was no less than 64.

Turning to `C[C@H](Nc1ncnc2[nH]cnc12)c1nc2c(Cl)cccc2n1-c1ccccc1` [Example 120, (S)—N-(1-(4-chloro-1-phenyl-1H-benzo[d]imidazol-2-yl)ethyl)-9H-purin-6-amine], the IC50 at p110 delta is 4.46 nM. The “IC50 p110 alpha/IC50 p110 delta” value on p110 alpha is on record as no less than 470.

On to `CC(Nc1ncnc2[nH]cnc12)c1sc2ccccc2c1-c1ccccc1` (centres unmarked) [Example 101, N-(1-(3-phenylbenzo[b]thiophen-2-yl)ethyl)-9H-purin-6-amine], for which the half-inhibitory concentration (IC50) at p110 delta was 52.3 nM. The “IC50 p110 alpha/IC50 p110 delta” value at p110 alpha is no less than 40.

`CC[C@H](Nc1ncnc2[nH]cnc12)c1nc2ccccc2n1-c1ccccc1` [Example 119, (S)—N-(1-(1-phenyl-1H-benzo[d]imidazol-2-yl)propyl)-9H-purin-6-amine]: the IC50 on p110 delta amounted to 1.59 nM. Besides, the “IC50 p110 alpha/IC50 p110 delta” value at p110 alpha is no less than 1320.

The molecule `C[C@H](Nc1ncnc2[nH]cnc12)c1nc2cccc(F)c2n1-c1ccccc1` [Example 124, (S)—N-(1-(7-fluoro-1-phenyl-1H-benzo[d]imidazol-2-yl)ethyl)-9H-purin-6-amine] displayed an IC50 in assay [1] of 67.1 nM. This counts as double-digit nanomolar.

Take `CC[C@H](Nc1ncnc2nc[nH]c12)c1nc2ccc(F)cc2n1-c1ccccc1` [Example 160, (S)—N-(1-(6-fluoro-1-phenyl-1H-benzo[d]imidazol-2-yl)propyl)-7H-purin-6-amine]: in assay [1], the IC50 came out at 179 nM.

For `C[C@H](Nc1ncnc2sccc12)c1nc2ccccc2n1-c1ccccc1` [Example 143, (S)—N-(1-(1-phenyl-1H-benzo[d]imidazol-2-yl)ethyl)thieno[2,3-d]pyrimidin-4-amine], the IC50 at p110 delta came to 87.9 nM. For the same molecule, the “IC50 p110 alpha/IC50 p110 delta” value at p110 alpha was no less than 24.

As to `C[C@H](Nc1ncnc2[nH]cnc12)c1nc2ccc(F)cc2n1-c1ccccc1` [Example 123, (S)—N-(1-(6-fluoro-1-phenyl-1H-benzo[d]imidazol-2-yl)ethyl)-9H-purin-6-amine], the IC50 turned out to be 0.854 nM at p110 delta and 29.1 nM in assay [1]. Moreover, the “IC50 p110 alpha/IC50 p110 delta” value on p110 alpha was no less than 2459.

On to `C[C@H](Nc1ncnc2[nH]cnc12)c1nc2cccnc2n1-c1ccccc1` [Example 114, (S)—N-(1-(3-phenyl-3H-imidazo[4,5-b]pyridin-2-yl)ethyl)-9H-purin-6-amine], for which the IC50 at p110 delta is 20.1 nM; in assay [1], 83.4 nM. Further, the “IC50 p110 alpha/IC50 p110 delta” value on p110 alpha is given as no less than 104.

For `Nc1ncnc2c1ncn2Cc1nc2ccccc2n1-c1ccccc1` [Example 106, 9-((1-phenyl-1H-benzo[d]imidazol-2-yl)methyl)-9H-purin-6-amine], the IC50 at p110 delta is 189 nM. Further, the “IC50 p110 alpha/IC50 p110 delta” value on p110 alpha is recorded as no less than 11.

In turn, `CC(=O)N1CCC(n2c([C@H](C)Nc3ncnc4[nH]cnc34)nc3ccccc32)CC1` [Example 115, (S)-1-(4-(2-(1-(9H-purin-6-ylamino)ethyl)-1H-benzo[d]imidazol-1-yl)piperidin-1-yl)ethanone] came in with an IC50 on p110 delta of 13.7 nM. Further, the “IC50 p110 alpha/IC50 p110 delta” value on p110 alpha is no less than 153.

On to `C[C@H](Nc1ncnc2[nH]cnc12)c1nc2cccc(Cl)c2n1-c1ccccc1` [Example 138, (S)—N-(1-(7-chloro-1-phenyl-1H-benzo[d]imidazol-2-yl)ethyl)-9H-purin-6-amine], for which the concentration for half-maximal inhibition (IC50) in assay [1] is 87.6 nM.

The molecule `CC(Nc1ncnc2[nH]cnc12)c1nc2ccccc2n1-c1ccccc1` (racemic) [Example 102, N-(1-(1-phenyl-1H-benzo[d]imidazol-2-yl)ethyl)-9H-purin-6-amine] registered an IC50 at p110 delta of 9.1 nM. Further, at p110 alpha, the “IC50 p110 alpha/IC50 p110 delta” value is on record as no less than 230.
